Test results from patent US20130109682A1, “CYCLIC ETHER COMPOUNDS USEFUL AS KINASE INHIBITORS” (NOVARTIS AG, priority 2010, published 2013).
Where two headings read alike, the source gives them in different places.

Legend:
PIM3 [1] = target: T1, PIM3 (Homo sapiens, UniProt Q86V86); test: KinaseGlo Pim3 ATP depletion assay; format: biochemical
Outline: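 Kinase was preincubated 15 min with BAD peptide in HEPES pH 7.5/MgCl2/DTT/BSA before ATP was added. Final concentrations were 40 μM ATP, 100 μM BAD peptide and 2.5% DMSO, with 5 nM enzyme. The reaction ran to ~50% ATP depletion and remaining ATP was read by KinaseGlo Plus luminescence.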

PIM2 [2] = target: T2, PIM2 (Homo sapiens, UniProt Q9P1W9); test: KinaseGlo Pim2 ATP depletion assay; format: biochemical
Outline: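 Luminescent ATP-depletion read-out of PIM2 phosphorylating BAD peptide (RSRHSSYPAGT-OH). Final conditions: 5 nM PIM2, 4 μM ATP, 10 μM peptide, 2.5% DMSO in 50 mM HEPES pH 7.5, 5 mM MgCl2, 1 mM DTT, 0.05% BSA. Enzyme–peptide preincubated 15 min with compound; reaction run to ~50% ATP depletion.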

GSK3β = GSK3β (Homo sapiens, UniProt P49841); test: GSK3β ATP depletion assay; format: biochemical; settings: read-out: GSK3b IC50
Outline: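 Human GSK3β (5 nM) preincubated 15 min with 10 μM biotinylated phospho-CREB peptide in pH 7.5 Tris buffer (15 mM MgCl2, 1 mM DTT, 0.1% BSA, 2.5% DMSO). Reaction started with 2 μM ATP and run to about 50% ATP depletion. Remaining ATP measured by KinaseGlo luminescence.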

PIM1 [3] = target: T3, PIM1 (Homo sapiens, UniProt P11309); test: KinaseGlo Pim1 ATP depletion assay; format: biochemical
Outline: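 2.5 nM PIM1 preincubated 15 min with compound and 40 μM BAD peptide in 50 mM HEPES pH 7.5, 5 mM MgCl2, 1 mM DTT, 0.05% BSA, 2.5% DMSO. The reaction was started with 20 μM ATP (final) and run to about 50% ATP depletion. Remaining ATP read by KinaseGlo Plus luminescence to give IC50.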

hERG = target: T4, hERG (Homo sapiens, UniProt Q12809); test: hERG binding assay ([3H] dofetilide displacement); settings: dofetilide displacement; read-out: HERGdof IC50
T4 construct: host or cells: crude membrane suspension
Experimental: Compounds of the invention were pipetted into each well of pre-wet 96-well Millipore GF/C filter plates (#MSFCN6B50): 119 μl assay buffer, 1 μl test compound in 100% DMSO (or 100% DMSO only for total binding), 40 μl [3H] dofetilide (12.5 nM, final concentration 2.5 nM; Novartis radioisotope laboratory, East Hanover, N.J., USA, specific activity 15-45 Ci/mmol); 40 μl crude membrane suspension (ca. 15 μg protein). The final concentration of DMSO during the incubation was 0.5%. Incubations were performed at room temperature for 90 min. Non-specific binding (NSB) was defined as the binding remaining in the presence of 25 μM terfenadine (Sigma T9652). The incubations were terminated by rapid filtration on a Millipore filtration manifold, followed by three washes of 200 μA ice-cold assay buffer. The plates were left to dry overnight before adding 40 μA scintillant (MicroScint-20). The plates were then sealed (Sealing Tape SI, Nunc 236366) and read in a Wallac MicroBeta Trilux beta-counter for 1.5 min per well. Compounds were tested as 9-concentration response curves in duplicate, ranging from 30 μM to 3 nM in 1:3 dilution steps. Dilution curves were prepared in 100% DMSO. The reference compound (terfenadine) was tested as an eight-concentration response curve, ranging from 10 μM to 0.6 nM in 1:4 dilution steps.

[4] = test system: KMS11 (human myeloma cell line); test: Cell proliferation assay (CellTiter-Glo), KMS11; format: cell-based; settings: Homo sapiens, KMS-11
Outline: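 KMS11 cells in IMDM with 10% FBS and sodium pyruvate, seeded at 2000 cells/well on assay day. Compound added at 2× to equal volume of cells, incubated 3 days at 37° C. Viability read by CellTiter-Glo luminescence; EC50 derived.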

PIM3 [5] = target: T1, PIM3; test: Pim 3 AlphaScreen assay (high ATP); format: biochemical; settings: read-out: Pim3 IC50
Outline: (§1)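 This is a bead-based AlphaScreen run at high ATP (11-125× Km) with biotin-Bad peptide (100 nM in the substrate mix), in 50 mM Hepes pH 7.5, 5 mM MgCl2, 0.05% BSA, 0.01% Tween-20, 1 mM DTT and 2.5% DMSO final. After ~2 h the reaction was stopped with EDTA. Phospho-peptide was detected overnight with anti-phospho Ser/Thr antibody on Protein A and streptavidin beads, giving IC50.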

PIM2 [6] = target: T2, PIM2; test: Pim 2 AlphaScreen assay (high ATP); format: biochemical; settings: read-out: Pim2 IC50
Outline: as §1

PIM1 [7] = target: T3, PIM1; test: Pim 1 AlphaScreen assay (high ATP); format: biochemical; settings: read-out: Pim1 IC50
Outline: as §1

[8] = KMS11 cells, cell proliferation, read-out: KMS11-Luc EC50

Chain of GSK3β (P49841 whole entry, species assumed): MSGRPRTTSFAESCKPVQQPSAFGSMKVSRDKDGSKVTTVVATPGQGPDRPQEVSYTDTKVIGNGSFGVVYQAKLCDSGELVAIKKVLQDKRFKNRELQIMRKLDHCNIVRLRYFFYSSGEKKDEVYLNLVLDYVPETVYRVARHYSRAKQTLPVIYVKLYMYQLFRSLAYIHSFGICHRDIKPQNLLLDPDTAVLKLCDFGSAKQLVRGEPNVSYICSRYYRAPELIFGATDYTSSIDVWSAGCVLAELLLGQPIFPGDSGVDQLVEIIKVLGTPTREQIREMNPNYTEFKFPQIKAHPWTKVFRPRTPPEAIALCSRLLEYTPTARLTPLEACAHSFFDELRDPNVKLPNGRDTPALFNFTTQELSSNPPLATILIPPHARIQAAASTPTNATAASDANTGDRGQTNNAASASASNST
T2 sequence (Q9P1W9 whole entry): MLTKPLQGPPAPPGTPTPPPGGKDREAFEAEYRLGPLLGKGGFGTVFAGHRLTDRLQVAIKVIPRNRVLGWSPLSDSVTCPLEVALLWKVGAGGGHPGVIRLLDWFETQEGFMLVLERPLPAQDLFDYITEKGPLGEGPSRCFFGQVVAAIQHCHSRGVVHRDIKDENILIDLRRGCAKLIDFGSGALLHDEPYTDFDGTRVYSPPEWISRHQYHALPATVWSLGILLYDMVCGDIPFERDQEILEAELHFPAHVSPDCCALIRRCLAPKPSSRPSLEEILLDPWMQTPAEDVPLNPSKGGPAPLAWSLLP
T3 sequence (P11309 whole entry): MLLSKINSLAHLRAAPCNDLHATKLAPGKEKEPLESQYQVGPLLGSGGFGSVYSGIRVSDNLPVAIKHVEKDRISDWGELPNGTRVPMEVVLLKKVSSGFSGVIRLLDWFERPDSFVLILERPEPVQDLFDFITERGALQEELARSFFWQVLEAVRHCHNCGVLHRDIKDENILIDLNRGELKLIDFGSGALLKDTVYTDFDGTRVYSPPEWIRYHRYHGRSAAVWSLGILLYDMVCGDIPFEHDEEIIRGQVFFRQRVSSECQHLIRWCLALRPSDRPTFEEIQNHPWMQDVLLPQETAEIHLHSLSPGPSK
T4 sequence (Q12809 whole entry): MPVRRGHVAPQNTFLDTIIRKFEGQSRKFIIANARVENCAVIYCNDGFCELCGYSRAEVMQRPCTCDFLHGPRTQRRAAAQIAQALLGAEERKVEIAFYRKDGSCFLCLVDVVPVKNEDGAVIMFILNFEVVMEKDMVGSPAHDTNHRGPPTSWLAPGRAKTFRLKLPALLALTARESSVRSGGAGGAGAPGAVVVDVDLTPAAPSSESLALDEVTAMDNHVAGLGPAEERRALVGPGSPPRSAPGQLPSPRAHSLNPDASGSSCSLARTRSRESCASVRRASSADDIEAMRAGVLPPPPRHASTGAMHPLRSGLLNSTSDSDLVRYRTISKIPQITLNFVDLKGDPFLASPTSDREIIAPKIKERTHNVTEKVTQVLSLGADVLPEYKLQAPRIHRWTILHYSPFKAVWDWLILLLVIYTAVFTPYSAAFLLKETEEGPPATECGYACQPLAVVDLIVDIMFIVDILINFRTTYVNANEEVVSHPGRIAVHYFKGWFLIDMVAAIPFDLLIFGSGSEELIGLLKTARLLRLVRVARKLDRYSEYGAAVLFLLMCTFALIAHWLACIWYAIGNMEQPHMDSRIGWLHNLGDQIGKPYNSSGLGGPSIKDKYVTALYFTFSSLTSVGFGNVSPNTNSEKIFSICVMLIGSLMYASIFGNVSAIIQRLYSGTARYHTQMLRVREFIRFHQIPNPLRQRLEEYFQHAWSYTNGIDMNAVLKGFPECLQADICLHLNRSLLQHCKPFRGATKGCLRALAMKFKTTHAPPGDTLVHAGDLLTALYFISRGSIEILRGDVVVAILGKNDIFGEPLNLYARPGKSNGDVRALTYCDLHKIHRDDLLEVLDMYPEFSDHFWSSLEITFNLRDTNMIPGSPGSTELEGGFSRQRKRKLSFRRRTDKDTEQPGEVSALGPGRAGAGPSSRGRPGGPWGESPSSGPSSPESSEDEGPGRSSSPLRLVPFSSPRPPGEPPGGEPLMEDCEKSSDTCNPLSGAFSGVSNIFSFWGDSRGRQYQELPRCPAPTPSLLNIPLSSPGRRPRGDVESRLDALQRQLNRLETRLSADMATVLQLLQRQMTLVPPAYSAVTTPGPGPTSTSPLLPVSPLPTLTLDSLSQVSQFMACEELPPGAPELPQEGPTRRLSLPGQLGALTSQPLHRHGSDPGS

In the case of `O=C(Nc1cnccc1[C@H]1C[C@@H](O)CCO1)c1ccc(F)c(-c2c(F)cccc2F)n1` [Example 129, 6-(2,6-difluorophenyl)-5-fluoro-N-(4-((2R,4S)-4-hydroxytetrahydro-2H-pyran-2-yl)pyridin-3-yl)picolinamide], the IC50 (PIM3 [1]) is reported as 13 nM, the IC50 (PIM2 [2]) is reported as 147 nM and the IC50 (GSK3β) is reported as 361 nM. The IC50 (PIM1 [3]) was 2 nM, the IC50 (hERG) was > 30000 nM and the EC50 ([4]; KMS11-Luc cells) was > 10000 nM.
In the case of `C[C@@H]1O[C@H](c2ccncc2NC(=O)c2ccc(F)c(-c3c(F)cccc3F)n2)[C@@H](F)[C@H](O)[C@@]1(C)O` (stereo in doubt) [Example 71, 6-(2,6-difluorophenyl)-5-fluoro-N-(4-((2R,3S,4R,5R,6S)-3-fluoro-4,5-dihydroxy-5,6-dimethyltetrahydro-2H-pyran-2-yl)pyridin-3-yl)picolinamide], the IC50 (PIM3 [1]) is reported as 6 nM, the IC50 (PIM2 [2]) is reported as 52 nM and the IC50 (GSK3β) is reported as 1480 nM. For the same compound, the IC50 (PIM1 [3]) was 1 nM, the IC50 (hERG) was > 30000 nM and the EC50 ([4]; KMS11-Luc cells) was 6400 nM.
`C[C@@H]1O[C@H](c2ccncc2NC(=O)c2cncc(-c3ccccc3)n2)C[C@H](O)[C@@]1(C)O` [Example 87, N-(4-((2S,4S,5R,6S)-4,5-dihydroxy-5,6-dimethyltetrahydro-2H-pyran-2-yl)pyridin-3-yl)-6-phenylpyrazine-2-carboxamide] was tested, and the IC50 (PIM3 [1]) was 2670 nM, the IC50 (PIM2 [2]) was > 25000 nM and the IC50 (GSK3β) was 809 nM. For the same compound, the IC50 (PIM1 [3]) was 937 nM, the IC50 (hERG) was > 30000 nM and the EC50 ([4]; KMS11-Luc cells) was > 10000 nM.
`C[C@@H]1O[C@H](c2ccncc2NC(=O)c2ccc(F)c(-c3c(F)cccc3F)n2)C[C@H](N)[C@H]1O` [Example 115, N-(4-((2S,4S,5R,6S)-4-amino-5-hydroxy-6-methyltetrahydro-2H-pyran-2-yl)pyridin-3-yl)-6-(2,6-difluorophenyl)-5-fluoropicolinamide] was tested, and the IC50 (PIM3 [1]) was 2 nM, the IC50 (PIM2 [2]) was 5 nM and the IC50 (GSK3β) was 225 nM. It also gave an IC50 (PIM1 [3]) of 1 nM, an IC50 (hERG) of 22000 nM and an EC50 ([4]; KMS11-Luc cells) of 1300 nM.
Compound `[2H][C@@H]1[C@@H](O)[C@H](O)[C@@H](CC)O[C@@]1([2H])c1ccncc1NC(=O)c1ccc(F)c(-c2c(F)cccc2F)n1` [Example 54, 6-(2,6-difluorophenyl)-N-(4-((2R,4R,5S,6R)-6-ethyl-4,5-dihydroxy-2,3-didueterotetrahydro-2H-pyran-2-yl)pyridin-3-yl)-5-fluoropicolinamide] has an IC50 (PIM3 [1]) of 2 nM, an IC50 (PIM2 [2]) of 3 nM and an IC50 (GSK3β) of 131 nM. The IC50 (PIM1 [3]) was 1 nM, the IC50 (hERG) was > 30000 nM and the EC50 ([4]; KMS11-Luc cells) was 2100 nM.
`CC[C@]1(O)[C@H](O)C[C@H](c2ccncc2NC(=O)c2nc(-c3c(F)cccc3F)c(F)cc2N)O[C@@H]1C` [Example 27, 3-amino-6-(2,6-difluorophenyl)-N-(4-((2R,4R,5S,6R)-5-ethyl-4,5-dihydroxy-6-methyltetrahydro-2H-pyran-2-yl)pyridin-3-yl)-5-fluoropicolinamide] gave an IC50 (PIM3 [1]) of 1 nM, an IC50 (PIM2 [2]) of 1 nM and an IC50 (GSK3β) of 250 nM. For the same compound, the IC50 (PIM1 [3]) was 1 nM and the IC50 (hERG) was > 30000 nM.
Work on `C[C@H]1C[C@@H](O)C[C@@H](c2ccncc2NC(=O)c2csc(-c3c(F)cccc3F)n2)O1` (stereo in doubt) [Example 127, 2-(2,6-difluorophenyl)-N-(4-((2S,4R,6S)-4-hydroxy-6-methyltetrahydro-2H-pyran-2-yl)pyridin-3-yl)thiazole-4-carboxamide] yielded an IC50 (PIM3 [1]) of 19 nM, an IC50 (PIM2 [2]) of 324 nM and an IC50 (GSK3β) of 25 nM. The IC50 (PIM1 [3]) was 1 nM, the IC50 (hERG) was > 30000 nM and the EC50 ([4]; KMS11-Luc cells) was 9600 nM.
Compound `C[C@H]1C[C@@H](N)C[C@@H](c2ccncc2NC(=O)c2ccc(F)c(-c3c(F)cccc3F)n2)O1` [Example 124, N-(4-((2S,4R,6S)-4-amino-6-methyltetrahydro-2H-pyran-2-yl)pyridin-3-yl)-6-(2,6-difluorophenyl)-5-fluoropicolinamide] has an IC50 (PIM3 [1]) of 2 nM, an IC50 (PIM2 [2]) of 5 nM and an IC50 (GSK3β) of 3400 nM. It also gave an IC50 (PIM1 [3]) of 1 nM, an IC50 (hERG) of 3000 nM and an EC50 ([4]; KMS11-Luc cells) of 1600 nM.
For `CC(C)NC(=O)c1ccc(F)c(-c2ccc(N)c(C(=O)Nc3cnccc3[C@@H]3C[C@@H](O)[C@](C)(O)[C@@H](C)O3)n2)c1F` [Example 98, 3-amino-6-(2,6-difluoro-3-(isopropylcarbamoyl)phenyl)-N-(4-((2S,4R,5S,6R)-4,5-dihydroxy-5,6-dimethyltetrahydro-2H-pyran-2-yl)pyridin-3-yl)picolinamide], the IC50 (PIM3 [1]) was 3 nM, the IC50 (PIM2 [2]) was 2 nM and the IC50 (GSK3β) was 916 nM. For the same compound, the IC50 (PIM1 [3]) was 2 nM, the IC50 (hERG) was > 30000 nM and the EC50 ([4]; KMS11-Luc cells) was 500 nM.
In the case of `C[C@H]1C[C@@H](N)C[C@@H](c2ccncc2NC(=O)c2csc(-c3c(F)cccc3F)n2)O1` [Example 123, N-(4-((2S,4R,6S)-4-amino-6-methyltetrahydro-2H-pyran-2-yl)pyridin-3-yl)-2-(2,6-difluorophenyl)thiazole-4-carboxamide], the IC50 (PIM3 [1]) is reported as 7 nM, the IC50 (PIM2 [2]) is reported as 44 nM and the IC50 (GSK3β) is reported as 421 nM. The IC50 (PIM1 [3]) was 1 nM, the IC50 (hERG) was 12000 nM and the EC50 ([4]; KMS11-Luc cells) was 4200 nM.
`C[C@H]1O[C@@H](c2ccncc2NC(=O)c2cncc(-c3ccccc3)n2)C[C@@H](O)[C@]1(C)O` [Example 85, N-(4-((2R,4R,5S,6R)-4,5-dihydroxy-5,6-dimethyltetrahydro-2H-pyran-2-yl)pyridin-3-yl)-6-phenylpyrazine-2-carboxamide] showed an IC50 (PIM3 [1]) of 564 nM, an IC50 (PIM2 [2]) of 20600 nM and an IC50 (GSK3β) of 257 nM. The IC50 (PIM1 [3]) was 221 nM, the IC50 (hERG) was > 30000 nM and the EC50 ([4]; KMS11-Luc cells) was > 10000 nM.
For `O=C(Nc1cnccc1[C@@H]1C[C@H](O)CC2(CC2)O1)c1ccc(F)c(-c2c(F)cccc2F)n1` [Example 60, 6-(2,6-difluorophenyl)-5-fluoro-N-(4-((5S,7S)-7-hydroxy-4-oxaspiro[2.5]octan-5-yl)pyridin-3-yl)picolinamide], the IC50 (PIM2 [2]) was 28 nM, the IC50 (GSK3β) was 92 nM and the IC50 (hERG) was > 30000 nM. The EC50 ([4]; KMS11-Luc cells) was > 10000 nM.
With `CC(C)[C@H]1OC(c2ccncc2NC(=O)c2ccc(F)c(-c3c(F)ccc(C(=O)N(C)C)c3F)n2)C[C@@H](N)[C@@H]1O` (stereo in doubt) [Example 317, N-(4-((2S,4R,5S,6R)-4-amino-5-hydroxy-6-isopropyltetrahydro-2H-pyran-2-yl)pyridin-3-yl)-6-(3-(dimethylcarbamoyl)-2,6-difluorophenyl)-5-fluoropicolinamide] the IC50 (PIM3 [5]) was 9.6 nM, the IC50 (GSK3β; ATP depletion assay) was > 25000 nM and the EC50 [4, 8] was 80 nM. The IC50 (PIM2 [6]) was 6.6 nM and the IC50 (PIM1 [7]) was 1 nM.
`COCCOc1cc(F)c(-c2nc(C(=O)Nc3cnccc3C3C[C@@H](N)[C@H](O)[C@@H](C(C)C)O3)ccc2F)c(F)c1` (stereo in doubt) [Example 318, N-(4-((2S,4R,5S,6R)-4-amino-5-hydroxy-6-isopropyltetrahydro-2H-pyran-2-yl)pyridin-3-yl)-6-(2,6-difluoro-4-(2-methoxyethoxy)phenyl)-5-fluoropicolinamide] showed an IC50 (PIM3 [5]) of 1.7 nM, an IC50 (GSK3β; ATP depletion assay) of 1160 nM and an EC50 [4, 8] of 80 nM. It also gave an IC50 (PIM2 [6]) of 2.3 nM and an IC50 (PIM1 [7]) of 0.05 nM.
